Measurements from article PMC6158096 (Molecular microbiology, 2018).
Values joined by “and” are separate entries in the source; they are usually repeats but may differ in a detail not shown here. Equal values may be shown once. Read-outs that look alike come from different tables or passages of the source. Ends that are not written are not given here. * marks the point of attachment. FITC = O=C1OC2(c3ccc(O)cc3Oc3cc(O)ccc32)c2ccc(NC(=S)*)cc21; Ahx = NCCCCCC(=O)O

Columns and labels:
[1] = test system: ComR;sXIP (ComS 11-17) (Streptococcus mutans UA159;Streptococcus mutans); test: fluorescence polarization
[2] = test system: ComR;sXIP (ComS 11-17) (Streptococcus mutans UA159;Streptococcus mutans); test: fluorescence polarization; remark: listed apart in the source
[3] = test system: ComR; test: Fluorescence polarization: FITC-labeled XrpA-N1 direct binding to ComR; design: species or system Streptococcus mutans; settings: 10 nM FITC-labeled XrpA-N1, increasing concentrations of sXIP
[4] = test system: SppA (SMU.508); test: Fluorescence polarization: FITC-labeled XrpA-N1 binding to SppA; design: species or system Streptococcus mutans; settings: 10 nM probe, increasing purified protein, 10 μM sXIP
[5] = test system: CcpA; test: Fluorescence polarization: FITC-labeled XrpA-N1 binding to CcpA; design: species or system Streptococcus mutans; settings: 10 nM probe, increasing purified protein, 10 μM sXIP

## ATGGGACATTTATGTCCTGTCCCCCACAGGACATAAATGTCCCAT [PcomX ECom-box stem-loop probe]
[1]
  Kd: 147 nM
[2]
  Kd: 169 nM and 165 nM

## GLDWWSL [sXIP]
[3]
  effect on fluorescent XrpA-N1 affinity for ComR: no effect

## {FITC-Ahx}-MIQNCISILRHFLITLK [FITC-labeled XrpA-N1]
[4]
  interaction of FITC-labeled XrpA-N1 with SppA: neither showed any ability to interact
[5]
  interaction of FITC-labeled XrpA-N1 with CcpA: neither showed any ability to interact
